Results reported in ChEMBL document CHEMBL1828601, “Small molecule peptidomimetic inhibitors of importin α/β mediated nuclear transport” (Bioorg Med Chem, 2010).
Calls of active or inactive are those of the source. The rule behind the calls is not given here.

System: FGM
Experiment: Inhibition of importin alpha/beta-mediated nuclear transportation of Alexa555-BSA-NLS in human FGM cell nucleus at 500 uM after 30 mins by fluorescence microscopy
Assay type: cell-based

Question: With `N[C@@H](CO)C(=O)Nc1ccc(C(=O)N[C@@H](CCc2ccccc2)C(=O)O)cc1OCc1ccccc1` as the compound, how does the inhibition read?
Answer: Active

Question: How did the inhibition turn out when `N[C@@H](Cc1ccc2ccccc2c1)C(=O)Nc1ccc(C(=O)N[C@@H](CCc2ccccc2)C(=O)O)cc1OCc1ccccc1` was run?
Answer: inactive

Question: For `COc1ccc(C[C@H](N)C(=O)N2C[C@@H](C(=O)NCCc3c[nH]c4ccccc34)[C@H](C(=O)NCCc3c[nH]c4ccccc34)C2)cc1`, which inhibition is on record?
Answer: inactive

Question: For `CC(C)COc1cc(C(=O)N[C@@H](Cc2ccc3ccccc3c2)C(=O)O)ccc1NC(=O)[C@H](C)N`, which inhibition is on record?
Answer: Active

Question: How did the inhibition turn out when `CC(C)COc1cc(C(=O)N[C@@H](Cc2ccc3ccccc3c2)C(=O)O)ccc1NC(=O)[C@@H](N)Cc1ccc2ccccc2c1` was run?
Answer: inactive

Question: Which inhibition does the source give for `C[C@@H](O)[C@H](N)C(=O)N1C[C@@H](C(=O)NCCc2c[nH]c3ccccc23)[C@H](C(=O)NCCc2c[nH]c3ccccc23)C1` here?
Answer: inactive

Question: `CC(C)COc1cc(C(=O)N[C@@H](Cc2ccc3ccccc3c2)C(=O)O)ccc1NC(=O)[C@@H](N)CC(=O)O` was tested. Which inhibition did it give?
Answer: inactive

Question: For `NC(=O)C[C@H](N)C(=O)N1C[C@@H](C(=O)NCCc2c[nH]c3ccccc23)[C@H](C(=O)NCCc2c[nH]c3ccccc23)C1`, which inhibition is on record?
Answer: inactive

Question: With `CC(C)COc1cc(C(=O)N[C@@H](Cc2ccc3ccccc3c2)C(=O)O)ccc1NC(=O)CN` as the compound, how does the inhibition read?
Answer: inactive

Question: With `CC(C)COc1cc(C(=O)N[C@@H](Cc2ccc3ccccc3c2)C(=O)O)ccc1NC(=O)[C@@H](N)Cc1ccccc1` as the compound, how does the inhibition read?
Answer: Active

Question: For `CC(C)COc1cc(C(=O)N[C@@H](Cc2ccc3ccccc3c2)C(=O)O)ccc1NC(=O)[C@@H](N)CC(N)=O`, which inhibition is on record?
Answer: inactive

Question: With `NCC(=O)Nc1ccc(C(=O)N[C@@H](CCc2ccccc2)C(=O)O)cc1OCc1ccccc1` as the compound, how does the inhibition read?
Answer: Active

Question: How did the inhibition turn out when `CC(C)COc1cc(C(=O)N[C@@H](Cc2ccc3ccccc3c2)C(=O)O)ccc1NC(=O)[C@@H](N)[C@@H](C)O` was run?
Answer: inactive

Question: Which inhibition does the source give for `CC(C)COc1cc(C(=O)N[C@@H](Cc2ccc3ccccc3c2)C(=O)O)ccc1NC(=O)[C@@H](N)CCc1ccccc1` here?
Answer: inactive

Question: With `N[C@@H](Cc1ccc(O)cc1)C(=O)N1C[C@@H](C(=O)NCCc2c[nH]c3ccccc23)[C@H](C(=O)NCCc2c[nH]c3ccccc23)C1` as the compound, how does the inhibition read?
Answer: inactive

Question: For `N[C@@H](Cc1cnc[nH]1)C(=O)N1C[C@@H](C(=O)NCCc2c[nH]c3ccccc23)[C@H](C(=O)NCCc2c[nH]c3ccccc23)C1`, which inhibition is on record?
Answer: inactive

Question: How did the inhibition turn out when `CC(C)[C@H](N)C(=O)N1C[C@@H](C(=O)NCCc2c[nH]c3ccccc23)[C@H](C(=O)NCCc2c[nH]c3ccccc23)C1` was run?
Answer: inactive

Question: How did the inhibition turn out when `N[C@@H](CO)C(=O)N1C[C@@H](C(=O)NCCc2c[nH]c3ccccc23)[C@H](C(=O)NCCc2c[nH]c3ccccc23)C1` was run?
Answer: inactive

Question: How did the inhibition turn out when `CC(C)[C@H](N)C(=O)Nc1ccc(C(=O)N[C@@H](CCc2ccccc2)C(=O)O)cc1OCc1ccccc1` was run?
Answer: Active

Question: With `N[C@@H](Cc1c[nH]cn1)C(=O)Nc1ccc(C(=O)N[C@@H](CCc2ccccc2)C(=O)O)cc1OCc1ccccc1` as the compound, how does the inhibition read?
Answer: inactive

Question: `N[C@@H](Cc1c[nH]c2ccccc12)C(=O)N1C[C@@H](C(=O)NCCc2c[nH]c3ccccc23)[C@H](C(=O)NCCc2c[nH]c3ccccc23)C1` was tested. Which inhibition did it give?
Answer: inactive

Question: With `CC(C)COc1cc(C(=O)N[C@@H](Cc2ccc3ccccc3c2)C(=O)O)ccc1NC(=O)[C@@H](N)CO` as the compound, how does the inhibition read?
Answer: inactive

Question: For `N[C@@H](Cc1ccc(Cl)cc1)C(=O)N1C[C@@H](C(=O)NCCc2c[nH]c3ccccc23)[C@H](C(=O)NCCc2c[nH]c3ccccc23)C1`, which inhibition is on record?
Answer: inactive

Question: For `CC(C)COc1cc(C(=O)N[C@@H](Cc2ccc3ccccc3c2)C(=O)O)ccc1NC(=O)[C@@H](N)CC(C)C`, which inhibition is on record?
Answer: inactive

Question: For `CC[C@H](C)[C@H](N)C(=O)N1C[C@@H](C(=O)NCCc2c[nH]c3ccccc23)[C@H](C(=O)NCCc2c[nH]c3ccccc23)C1`, which inhibition is on record?
Answer: inactive

Question: How did the inhibition turn out when `CC(C)COc1cc(C(=O)N[C@@H](Cc2ccc3ccccc3c2)C(=O)O)ccc1NC(=O)[C@@H](N)Cc1c[nH]cn1` was run?
Answer: inactive

Question: How did the inhibition turn out when `C[C@H](N)C(=O)N1C[C@@H](C(=O)NCCc2c[nH]c3ccccc23)[C@H](C(=O)NCCc2c[nH]c3ccccc23)C1` was run?
Answer: inactive

Question: With `N[C@@H](Cc1ccccc1)C(=O)Nc1ccc(C(=O)N[C@@H](CCc2ccccc2)C(=O)O)cc1OCc1ccccc1` as the compound, how does the inhibition read?
Answer: Active

Question: With `COc1ccc(C[C@H](N)C(=O)Nc2ccc(C(=O)N[C@@H](Cc3ccc4ccccc4c3)C(=O)O)cc2OCC(C)C)cc1` as the compound, how does the inhibition read?
Answer: Active

Question: Which inhibition does the source give for `N[C@@H](Cc1ccc2ccccc2c1)C(=O)N1C[C@@H](C(=O)NCCc2c[nH]c3ccccc23)[C@H](C(=O)NCCc2c[nH]c3ccccc23)C1` here?
Answer: inactive

Question: How did the inhibition turn out when `N[C@@H](Cc1ccc(O)cc1)C(=O)Nc1ccc(C(=O)N[C@@H](CCc2ccccc2)C(=O)O)cc1OCc1ccccc1` was run?
Answer: Active

Question: For `CC[C@H](N)C(=O)Nc1ccc(C(=O)N[C@@H](Cc2ccc3ccccc3c2)C(=O)O)cc1OCC(C)C`, which inhibition is on record?
Answer: inactive

Question: Which inhibition does the source give for `CC(C)C[C@H](N)C(=O)Nc1ccc(C(=O)N[C@@H](CCc2ccccc2)C(=O)O)cc1OCc1ccccc1` here?
Answer: Active

Question: How did the inhibition turn out when `N[C@@H](Cc1ccccc1)C(=O)N1C[C@@H](C(=O)NCCc2c[nH]c3ccccc23)[C@H](C(=O)NCCc2c[nH]c3ccccc23)C1` was run?
Answer: inactive

Question: For `NC(=O)C[C@H](N)C(=O)Nc1ccc(C(=O)N[C@@H](CCc2ccccc2)C(=O)O)cc1OCc1ccccc1`, which inhibition is on record?
Answer: inactive

Question: With `N[C@@H](CC(=O)O)C(=O)N1C[C@@H](C(=O)NCCc2c[nH]c3ccccc23)[C@H](C(=O)NCCc2c[nH]c3ccccc23)C1` as the compound, how does the inhibition read?
Answer: inactive

Question: `CSCC[C@H](N)C(=O)N1C[C@@H](C(=O)NCCc2c[nH]c3ccccc23)[C@H](C(=O)NCCc2c[nH]c3ccccc23)C1` was tested. Which inhibition did it give?
Answer: inactive

Question: How did the inhibition turn out when `N[C@@H](Cc1c[nH]c2ccccc12)C(=O)Nc1ccc(C(=O)N[C@@H](CCc2ccccc2)C(=O)O)cc1OCc1ccccc1` was run?
Answer: inactive

Question: Which inhibition does the source give for `N[C@@H](CCc1ccccc1)C(=O)Nc1ccc(C(=O)N[C@@H](CCc2ccccc2)C(=O)O)cc1OCc1ccccc1` here?
Answer: Active

Question: With `N[C@@H](CCc1ccc(O)cc1)C(=O)N1C[C@@H](C(=O)NCCc2c[nH]c3ccccc23)[C@H](C(=O)NCCc2c[nH]c3ccccc23)C1` as the compound, how does the inhibition read?
Answer: inactive

Question: With `N[C@@H](CC(=O)O)C(=O)Nc1ccc(C(=O)N[C@@H](CCc2ccccc2)C(=O)O)cc1OCc1ccccc1` as the compound, how does the inhibition read?
Answer: inactive

Question: With `N[C@@H](CCc1ccc(Cl)cc1)C(=O)N1C[C@@H](C(=O)NCCc2c[nH]c3ccccc23)[C@H](C(=O)NCCc2c[nH]c3ccccc23)C1` as the compound, how does the inhibition read?
Answer: inactive

Question: How did the inhibition turn out when `CC(C)COc1cc(C(=O)N[C@@H](Cc2ccc3ccccc3c2)C(=O)O)ccc1NC(=O)[C@@H](N)Cc1ccc(Cl)cc1` was run?
Answer: inactive

Question: Which inhibition does the source give for `N[C@@H](Cc1ccc(Cl)cc1)C(=O)Nc1ccc(C(=O)N[C@@H](CCc2ccccc2)C(=O)O)cc1OCc1ccccc1` here?
Answer: inactive

Question: How did the inhibition turn out when `COc1ccc(C[C@H](N)C(=O)Nc2ccc(C(=O)N[C@@H](CCc3ccccc3)C(=O)O)cc2OCc2ccccc2)cc1` was run?
Answer: inactive

Question: With `NCCCC[C@H](N)C(=O)Nc1ccc(C(=O)N[C@@H](CCc2ccccc2)C(=O)O)cc1OCc1ccccc1` as the compound, how does the inhibition read?
Answer: Active

Question: With `CC[C@H](C)[C@H](N)C(=O)Nc1ccc(C(=O)N[C@@H](Cc2ccc3ccccc3c2)C(=O)O)cc1OCC(C)C` as the compound, how does the inhibition read?
Answer: inactive

Question: How did the inhibition turn out when `CC(C)COc1cc(C(=O)N[C@@H](Cc2ccc3ccccc3c2)C(=O)O)ccc1NC(=O)[C@@H](N)C(C)C` was run?
Answer: inactive
